Test results: US11661404B2, “Prodrug compounds activated by AKR1C3 and their use for treating hyperproliferative disorders” (priority 2018, dated 2023)
Where two headings read alike, the source gives them in different places.

Columns and labels:
[1] = system: wild-type SNU398 hepatocellular carcinoma cells; assay: Anti-proliferative IC50 assay, wild-type SNU398; assay type: cell-based; details: Homo sapiens
Description: (§1) Four hundred cells were seeded in a volume of 100 μL in each well of a 96-well plate. The cells were left in a humidified incubator (37° C., 5% CO2) for 2 hours in order to enable attachment to the surface of the wells prior to compound addition. All compounds were prepared as stocks in DMSO and stored at −80° C. Frozen stocks of compounds were thawed immediately prior to addition to cells. Working solutions of each compound were made in α-MEM+5% FBS (v/v) at 3 times the required final concentration for the top well. The final concentration of DMSO in the α-MEM solution was ensured to not exceed 1% of the total volume. 50 μL of the working solution was added to the top wells (in duplicates) and gently mixed. The solubility of some compounds precluded the working solution in α-MEM to be 3 times the desired top well concentration. […] A 3-fold serial dilution was carried out along the plate starting from the top well. The first column of wells on the plate served as blanks (containing α-MEM+FBS) and the second column served as control wells (containing cells with no compound added). Following compound addition, the plates were incubated for 4 hours in a humidified incubator (37° C., 5% CO2).
(§2) Following the 4 hour compound exposure, the 96-well plates were washed three times by aspirating media with an Immuno Washer (Nunc) and each well replaced with 150 μL of α-MEM+5% (v/v) FBS+1% (v/v) P/S. The plates were left in a humidified incubator (37° C., 5% CO2) for 5 days to enable cell growth. The cells in 96-well plates were fixed 5 days after compound exposure by adding 50 μL of a 40% (w/v) trichloroacetic acid (TCA) solution so as to obtain a final TCA concentration of 10% in each well. The plates were left in the refrigerator (4° C.) for 1 hour and subsequently rinsed 3 times in tap water. Any excess water was left to drain and the cells were stained with 50 μL of 0.4% (w/v) sulforhodamine B (SRB). The plates with the SRB stain were left in the dark for 30 minutes. Excess stain was removed from the wells by rinsing the plates 4 times in water containing 1% (v/v) acetic acid. The stain was solubilised by adding 100 μL of 10 mM unbuffered Tris (pH 10.5) to each well and the plates were left in a shaker in a dark environment at room temperature for at least 1 hour. The absorbance values of the wells were determined by an ELx 808 Absorbance Microplate Reader (Bio-Tek Instruments, Winooski, Vt., USA), with the wavelength of the measurement filter set at 490 nm and a reference filter set at 450 nm. The absorbance of the reference filter was subtracted from the measurement filter to obtain a final absorbance of λ490-450 nm. The absorbance data was analysed and IC50 values determined by the KC4 microplate data analysis software (KC4™ V3.4, Bio-Tek).
(§3) Anti-proliferative IC50 assays were repeated as described above including the addition of 3 μM SN34037, a selective and potent small molecule inhibitor of AKR1C3.
Materials and methods used are as described for Example 9. […] This is a surprising finding and considerably greater than the approximately 77-fold, 270-fold and 400-fold increase in sensitivity observed for PR-104A, SN33540 and SN34454, respectively. In all cases, this increase in cytotoxicity resulting from expression of AKR1C3 can be substantially reversed by addition of an AKR1C3 inhibitor (SN34037), directly implicating metabolism of the prodrugs by AKR1C3 in the observed increase in cytotoxicity. As an important control, introduction of SN34037 had no anti-proliferative effects in wild-type SNU398 cells treated with compounds of the invention.

[2] = system: wild-type H460 lung cancer cells; assay: Anti-proliferative IC50 assay, wild-type H460; assay type: cell-based, human; details: for IC50: Homo sapiens
Description: as §1, §2, §3
Materials and methods used are as described for Example 9.

[3] = SNU-398, read-out: SNU398-WT +AKR1C3 Inhibitor Anti-proliferative IC50
[4] = SNU-398, read-out: SNU398-WT Anti-proliferative IC50
[5] = NCI-H460, read-out: H460-WT +AKR1C3 Inhibitor Anti-proliferative IC50
[6] = NCI-H460, read-out: H460-WT Anti-proliferative IC50

O=[N+]([O-])c1ccc(N(CCBr)CCBr)c(S(=O)(=O)N2CCN(CC(O)CO)CC2)c1 (stereo not drawn) [Compound 566, 3-(4-((2-(bis(2-bromoethyl)amino)-5-nitrophenyl)sulfonyl)piperazin-1-yl)propane-1,2-diol]
IC50 [1, 3]: 10.2 µM | IC50 [1, 4]: 9.64 µM | IC50 [2, 5]: 4.03 µM | IC50 [2, 6]: 0.004 µM

CN1CCN(S(=O)(=O)c2cc([N+](=O)[O-])ccc2N(CCBr)CCOS(C)(=O)=O)CC1 [Compound 602, 2-((2-bromoethyl)(2-((4-methylpiperazin-1-yl)sulfonyl)-4-nitrophenyl)amino)ethyl methanesulfonate]
IC50 [1, 3]: 6.65 µM | IC50 [1, 4]: 6.74 µM | more cytotoxic in H460 cells than SN34454 [2]: 102 fold | IC50 [2, 5]: 4.19 µM | IC50 [2, 6]: 0.004 µM

CS(=O)(=O)OCCN(CCBr)c1ccc([N+](=O)[O-])cc1S(=O)(=O)N1CCN(CC(O)CO)CC1 (stereo not drawn) [Compound 605, 2-((2-bromoethyl)(2-((4-(2,3-dihydroxypropyl)piperazin-1-yl)sulfonyl)-4-nitrophenyl)amino)ethyl methanesulfonate]
IC50 [1, 3]: 14.4 µM | IC50 [1, 4]: 16.2 µM | IC50 [2, 5]: 7.8 µM | IC50 [2, 6]: 0.025 µM

CN1CCN(S(=O)(=O)c2cc([N+](=O)[O-])ccc2N(CCOS(C)(=O)=O)CCOS(C)(=O)=O)CC1 [Compound 641, ((2-((4-methylpiperazin-1-yl)sulfonyl)-4-nitrophenyl)azanediyl)bis(ethane-2,1-diyl) dimethanesulfonate]
IC50 [1, 3]: 15.4 µM | IC50 [1, 4]: 10.3 µM | more cytotoxic in H460 cells than SN33540 [2]: 179 fold | more cytotoxic in H460 cells than SN34118 [2]: 520 fold | more cytotoxic in H460 cells than SN34454 [2]: 135 fold | IC50 [2, 5]: 5.86 µM | IC50 [2, 6]: 0.003 µM

CS(=O)(=O)OCCN(CCBr)c1c(C(=O)NCCO)cc([N+](=O)[O-])cc1[N+](=O)[O-] [PR-104A, 2-((2-bromoethyl)(2-((2-hydroxyethyl)-carbamoyl)-4,6-dinitrophenyl)amino)ethyl methanesulfonate, reference compound]
IC50 [1, 3]: 92.4 µM | IC50 [1, 4]: 89.8 µM | IC50 [2, 5]: 50 µM | IC50 [2, 6]: 2.7 µM

CN1CCN(C(=O)c2cc([N+](=O)[O-])ccc2N(CCBr)CCBr)CC1 [SN34118, reference compound]
IC50 [2, 5]: 28.9 µM | IC50 [2, 6]: 1.56 µM

CN1CCN(C(=O)c2cc([N+](=O)[O-])ccc2N(CCBr)CCOS(C)(=O)=O)CC1 [SN34454, reference compound]
IC50 [1, 3]: 48.9 µM | IC50 [1, 4]: 60.5 µM | IC50 [2, 5]: 46 µM | IC50 [2, 6]: 0.406 µM
